Entries after “also recorded” stand apart in the source; their conditions may differ. Marks after values point to notes of the source that are not given here.
Columns and labels:
Caco-2 cells [1] = experiment: Adsorption of chelate compounds to cells (HPLC and mass spectrometry); format: cell-based, human; conditions: for Adsorption Caco-2: 50 µM chelate compound, 0, 30 and 90 minutes at 37 °C, % adsorbed relative to time zero
Excerpt: (§1) As a prerequisite for the understanding of the functional attributes of Tb-PCTMB and Eu-QCTME for diagnostics and therapeutic purposes, and for other uses, it is useful to synthesize a series of chelate compounds that contain structural elements of both PCTMB and QCTME and test these compounds for adsorption and permeability to different cell lines. The first approach was to test for adsorption to a normal cell line (HEK293) and to two epithelial cancer cell lines (LNCaP and Caco-2). The second approach, described in this example, involves testing only the compounds that adsorbed in the cancer cell lines and not in the normal cell lines for permeability. Adsorption and permeability of the compounds to epithelial cancer cell lines and a normal cell line was measured through the detection of the compound by HPLC and mass spectrometry.
(§2) Cell cultures. LNCaP cell line is a human prostate carcinoma. Cells were grown in RPMI 1640 Medium supplemented 10% FBS, 2 mM L-glutamine, glucose (2 g/L) augmented with gentamicin (50 μg/mL), penicillin/streptomycin (100 IU/mL/100 μg/mL) and amphotericin B (2.5 μg/mL). Caco-2 cell line is a human colorectal carcinoma. These cells were grown in Eagle's Minimum Essential Medium supplemented with 20% FBS, Earle's BSS, 2 mM L-glutamine, 1.0 mM sodium pyruvate, 0.1 mM nonessential amino acids augmented with gentamicin (50 μg/mL), penicillin/streptomycin (100 IU/mL/100 μg/mL), and amphotericin B (2.5 μg/mL). The human kidney transformed cells HEK293 were grown in Eagle's Minimum Essential Medium (EMEM) supplemented with 10% (v/v) heat-inactivated fetal bovine serum, sodium pyruvate, nonessential amino acids and antibiotics in a humidified 5% CO2 atmosphere at 37° C. Medium and supplements were purchased from Gibco BRL (Grand Island, N.Y.) and all cell lines were obtained from ATCC.
(§3) Detection of chelate compounds for the determination of adsorption. Cells were grown to confluence in T-150 flasks (about 2×10^7 cells). Before treating with chelate compounds, cells were rinsed twice with warm 10 mM HEPES (Gibco BRL, Grand Island N.Y.), removed from the flask, and transferred to a 50-mL conical tube and centrifuged (400×g) for 5 minutes. The resulting cells were treated with individual chelate compounds with 50 µM of chelate compounds in 10 mM HEPES, pH 7.4, 5 mM KCl, 150 mM NaCl, 0.7 mM NaH2PO4 for 0, 30, and 90 minutes at 37 ° C. After treatment, cells were pelleted by centrifugation and the resulting solution was analyzed by a combination of HPLC and mass spectrometry.

HEK293 cells [2] = experiment: as above; format: cell-based, human; conditions: for Adsorption HEK293: 50 µM chelate compound, 0, 30 and 90 minutes at 37 °C, % adsorbed relative to time zero
Excerpt: as §1, §2, §3

LNCaP cells [3] = experiment: as above; format: cell-based, human; conditions: for Adsorption LNCaP: 50 µM chelate compound, 0, 30 and 90 minutes at 37 °C, % adsorbed relative to time zero
Excerpt: as §1, §2, §3

HEK293 cells [4] = experiment: Permeability: detection of chelate compounds in the cytoplasm; format: cell-based, human; set-up: key: Absence = 0; presence = +; conditions: 50 μM, 90 minutes at 37 °C
Protocol: as §2
(§4) Detection of chelant compounds for the determination of permeability. Cells were grown to confluence in T-150 flasks (about 2×10^7 cells). Before treating with chelate compounds, cells were rinsed twice with warm 10 mM HEPES (Gibco BRL, Grand Island N.Y.), removed from the flask, and transferred to a 50-mL conical tube and centrifuged (400×g) for 5 minutes. The resulting cells were treated with individual chelate compounds with 50 μM of chelate compounds in 10 mM HEPES, pH 7.4, 5 mM KCl, 150 mM NaCl, 0.7 mM NaH2PO4 for 90 minutes at 37° C. After treatment, cells were pelleted by centrifugation, the cytoplasm was extracted by Mem-PER Eukaryotic Membrane Protein Extraction Reagent Kit as described by manufacturers (Pierce biotechnology, Rockford, Ill.) and the resulting solution was analyzed by a combination of HPLC and mass spectrometry (Table 8).

Caco-2 cells [5] = experiment: as above; format: cell-based, human; set-up: key to Permeability Caco-2: Absence = 0; presence = +; conditions: for Permeability Caco-2: 50 μM, 90 minutes at 37 °C, detection in the cytoplasm; for detection within the cytoplasm: carcinoma cell line Caco-2
Protocol: as §2, §4

LNCaP cells [6] = experiment: as above; format: cell-based, human; set-up: key to Permeability LNCaP: Absence = 0; presence = +; conditions: for Permeability LNCaP: 50 μM, 90 minutes at 37 °C, detection in the cytoplasm; for detection within the cytoplasm: carcinoma cell line LNCaP
Protocol: as §2, §4

Amphiphysin I = biological target: T1, Amphiphysin I (Homo sapiens, UniProt P49418); experiment: Elution and identification of target-chelate compound associations; format: binding
T1 construct: Caco-2 and LNCaP cell lines were lysed by sonication or by lysis in hypotonic buffer; endogenous in cells; host or cells: Caco-2 and LNCaP
Protocol: (§5) Identification of novel target-chelate compound associations—Caco-2 and LNCaP cell lines were lysed by sonication or by lysis in hypotonic buffer. Soluble proteins were enriched and captured on an affinity support column. […] Proteins were eluted by adding different chelate compounds that compete for the bound ligand or change the steric structure of a given protein(s). Eluted samples were analyzed by high resolution SDS-PAGE. The protein-chelate compound associations were further analyzed to identify the different proteins by excising the corresponding protein bands from the gel, which was then treated with trypsin and purified. […]

BiP = biological target: T2, BiP (Homo sapiens, UniProt P11021); experiment: as above; format: binding
T2 construct: Caco-2 and LNCaP cell lines were lysed by sonication or by lysis in hypotonic buffer; endogenous in cells; host or cells: Caco-2 and LNCaP
Protocol: as §5

[7] = Solubility of chelate compounds; conditions: <5% methanol, ethanol, or DMSO
Cytokeratin 8 = biological target: T3, Cytokeratin 8 (Homo sapiens, UniProt P05787); experiment: Elution and identification of target-chelate compound associations; format: binding
T3 construct: Caco-2 and LNCaP cell lines were lysed by sonication or by lysis in hypotonic buffer; endogenous in cells; host or cells: Caco-2 and LNCaP
T3 sequence (P05787 1-483): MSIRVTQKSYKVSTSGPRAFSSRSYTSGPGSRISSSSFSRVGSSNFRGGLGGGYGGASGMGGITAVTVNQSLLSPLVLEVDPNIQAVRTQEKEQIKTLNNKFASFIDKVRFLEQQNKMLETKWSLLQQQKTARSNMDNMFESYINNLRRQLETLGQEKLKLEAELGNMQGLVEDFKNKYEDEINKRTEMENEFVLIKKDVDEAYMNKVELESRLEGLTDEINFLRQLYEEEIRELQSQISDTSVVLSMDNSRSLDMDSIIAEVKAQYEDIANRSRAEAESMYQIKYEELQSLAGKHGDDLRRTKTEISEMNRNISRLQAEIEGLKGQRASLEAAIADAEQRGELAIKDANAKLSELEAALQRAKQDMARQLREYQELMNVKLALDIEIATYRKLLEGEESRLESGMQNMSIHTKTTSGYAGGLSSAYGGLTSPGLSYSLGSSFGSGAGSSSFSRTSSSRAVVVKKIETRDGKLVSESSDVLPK
T3 sequence (P05783 2-430 partner limits assumed): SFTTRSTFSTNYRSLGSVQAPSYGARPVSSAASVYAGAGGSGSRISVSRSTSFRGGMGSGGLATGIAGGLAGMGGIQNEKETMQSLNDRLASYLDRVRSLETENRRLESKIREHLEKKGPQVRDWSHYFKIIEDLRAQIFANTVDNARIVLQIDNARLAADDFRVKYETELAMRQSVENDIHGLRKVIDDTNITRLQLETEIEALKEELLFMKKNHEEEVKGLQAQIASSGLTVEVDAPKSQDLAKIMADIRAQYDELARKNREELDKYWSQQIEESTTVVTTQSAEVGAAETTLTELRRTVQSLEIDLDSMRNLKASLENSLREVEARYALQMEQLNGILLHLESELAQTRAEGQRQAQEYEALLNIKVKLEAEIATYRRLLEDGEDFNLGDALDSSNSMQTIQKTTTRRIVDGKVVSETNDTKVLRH
Protocol: as §5

Keratin 18 = biological target: T4, Keratin 18 (Homo sapiens, UniProt P05783); experiment: as above; format: binding
T4 construct: Caco-2 and LNCaP cell lines were lysed by sonication or by lysis in hypotonic buffer; endogenous in cells; host or cells: Caco-2 and LNCaP
T4 sequence (P05783 2-430 limits assumed): T3 sequence (P05783 2-430 partner limits assumed)
T4 sequence (P05787 1-483 partner): T3 sequence (P05787 1-483)
Protocol: as §5

T1 sequence (P49418 1-653 isoform P49418-2): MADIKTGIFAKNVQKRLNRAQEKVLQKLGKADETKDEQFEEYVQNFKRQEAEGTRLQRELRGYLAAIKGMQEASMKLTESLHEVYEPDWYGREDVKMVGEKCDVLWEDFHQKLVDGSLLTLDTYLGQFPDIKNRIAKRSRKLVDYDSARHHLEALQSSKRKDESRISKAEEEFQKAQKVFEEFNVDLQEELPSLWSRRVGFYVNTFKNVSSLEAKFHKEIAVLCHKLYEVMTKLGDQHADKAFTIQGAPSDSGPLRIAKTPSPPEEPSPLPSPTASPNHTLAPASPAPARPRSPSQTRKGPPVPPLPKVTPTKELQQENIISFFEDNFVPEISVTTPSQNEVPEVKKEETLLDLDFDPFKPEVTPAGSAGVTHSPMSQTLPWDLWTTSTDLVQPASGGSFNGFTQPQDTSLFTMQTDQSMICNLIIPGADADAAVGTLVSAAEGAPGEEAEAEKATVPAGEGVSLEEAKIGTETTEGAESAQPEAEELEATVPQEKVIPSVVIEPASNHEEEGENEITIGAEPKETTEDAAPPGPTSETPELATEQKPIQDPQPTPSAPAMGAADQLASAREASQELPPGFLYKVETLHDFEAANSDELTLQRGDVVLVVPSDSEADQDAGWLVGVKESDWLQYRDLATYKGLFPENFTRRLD
T2 sequence (P11021 19-654): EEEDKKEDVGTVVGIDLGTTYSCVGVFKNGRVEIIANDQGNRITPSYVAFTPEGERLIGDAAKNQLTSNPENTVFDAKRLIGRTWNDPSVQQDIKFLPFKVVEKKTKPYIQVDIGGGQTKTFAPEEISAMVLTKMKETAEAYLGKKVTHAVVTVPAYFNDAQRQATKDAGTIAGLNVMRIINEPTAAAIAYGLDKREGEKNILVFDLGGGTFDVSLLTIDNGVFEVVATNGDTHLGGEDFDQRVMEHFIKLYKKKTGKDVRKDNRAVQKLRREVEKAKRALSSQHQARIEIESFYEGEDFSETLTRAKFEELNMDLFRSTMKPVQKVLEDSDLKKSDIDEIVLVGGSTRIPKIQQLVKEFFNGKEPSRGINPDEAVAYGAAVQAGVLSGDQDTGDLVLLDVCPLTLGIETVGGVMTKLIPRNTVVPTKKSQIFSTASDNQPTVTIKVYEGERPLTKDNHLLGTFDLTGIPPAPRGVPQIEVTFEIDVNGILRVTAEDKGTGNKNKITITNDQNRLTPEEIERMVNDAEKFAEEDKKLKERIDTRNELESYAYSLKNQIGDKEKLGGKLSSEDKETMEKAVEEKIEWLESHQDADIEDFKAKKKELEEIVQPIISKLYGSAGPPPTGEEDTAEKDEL

Compound | adsorption in carcinoma cell line Caco-2 (Caco-2 cells [1]) | Adsorption Caco-2 (Caco-2 cells [1]) | adsorption in normal cells (HEK293) (HEK293 cells [2]) | Adsorption HEK293 (HEK293 cells [2]) | adsorption in carcinoma cell line LNCaP (LNCaP cells [3]) | Adsorption LNCaP (LNCaP cells [3]) | Permeability HEK293 (HEK293 cells [4]) | Permeability Caco-2 (Caco-2 cells [5]) | detection within the cytoplasm (Caco-2 cells [5]) | Permeability LNCaP (LNCaP cells [6]) | detection within the cytoplasm (LNCaP cells [6]) | binding to amphiphysin I (Seq. ID No. 7) (Amphiphysin I) | binding to BiP (Seq. ID No. 5) (BiP) | solubility [7] | binding to cytokeratin 8 (Seq. ID No. 10) (Cytokeratin 8) | binding to keratin 18 (Seq. ID No. 9) (Keratin 18)
CCCCOP(=O)(O)Cc1ccc2cc(C)ccc2n1 [Compound 3] | adsorbed | ++ (++ = 21-40%) | not adsorbed | 0 (0 = 0-10%) | adsorbed | ++++ (++++ = >60%) | 0 | + | detected within the cytoplasm | + | detected within the cytoplasm | found to bind; also recorded: bind specifically | found to bind; also recorded: bind specifically | > 10 mM | – | –
CCCCOP(=O)(O)Cc1c(C)c(CP(=O)(O)OCCCC)c(C)c(CP(=O)(O)OCCCC)c1C [Compound 12, [3,5-Bis-(Butoxy-hydroxy-phosphorylmethyl)-2,4,6-trimethyl-benzyl]-phosphonic acid monobutyl ester] | adsorbed | ++++ (++++ = >60%) | not adsorbed | 0 (0 = 0-10%) | adsorbed | +++ (+++ = 41-60%) | 0 | + | detected within the cytoplasm | + | detected within the cytoplasm | – | – | > 10 mM | found to bind; also recorded: bind specifically | found to bind; also recorded: bind specifically
CCOP(=O)(O)Cc1cc(CP(=O)(O)OCC)cc(CP(=O)(O)OCC)c1 [Compound 8, [3,5-Bis-(Ethoxy-hydroxy-phosphorylmethyl)-benzyl]-phosphonic acid monoethyl ester] | adsorbed | +++ (+++ = 41-60%) | not adsorbed | 0 (0 = 0-10%) | adsorbed | +++ (+++ = 41-60%) | 0 | + | detected within the cytoplasm | + | detected within the cytoplasm | – | – | > 10 mM | found to bind; also recorded: bind specifically | found to bind; also recorded: bind specifically
CCCCOP(=O)(O)Cc1cc(CP(=O)(O)OCCCC)cc(CP(=O)(O)OCCCC)c1 [Compound 9, [3,5-Bis-(Butoxy-hydroxy-phosphorylmethyl)-benzyl]-phosphonic acid monobutyl ester] | adsorbed | ++ (++ = 21-40%) | not adsorbed | 0 (0 = 0-10%) | adsorbed | ++ (++ = 21-40%) | 0 | + | detected within the cytoplasm | + | detected within the cytoplasm | – | – | > 10 mM | found to bind; also recorded: bind specifically | found to bind; also recorded: bind specifically
CCOP(=O)(O)Cc1ccc2cc(C)ccc2n1 [Compound 2] | adsorbed | ++ (++ = 21-40%) | not adsorbed | 0 (0 = 0-10%) | adsorbed | ++ (++ = 21-40%) | 0^b | + | detected within the cytoplasm | + | detected within the cytoplasm | found to bind; also recorded: bind specifically | found to bind; also recorded: bind specifically | > 10 mM | – | –
